{"source": "patent US20250084065A1", "about": "“INHIBITING MONOACYLGLYCEROL LIPASE (MAGL)” (Psy Therapeutics, Inc., priority 2021, published 2025)", "key": {"MAGL enzyme": {"molecular_target": "T1, MAGL enzyme (Homo sapiens, UniProt Q99685)", "T1 sequence (Q99685 1-303)": "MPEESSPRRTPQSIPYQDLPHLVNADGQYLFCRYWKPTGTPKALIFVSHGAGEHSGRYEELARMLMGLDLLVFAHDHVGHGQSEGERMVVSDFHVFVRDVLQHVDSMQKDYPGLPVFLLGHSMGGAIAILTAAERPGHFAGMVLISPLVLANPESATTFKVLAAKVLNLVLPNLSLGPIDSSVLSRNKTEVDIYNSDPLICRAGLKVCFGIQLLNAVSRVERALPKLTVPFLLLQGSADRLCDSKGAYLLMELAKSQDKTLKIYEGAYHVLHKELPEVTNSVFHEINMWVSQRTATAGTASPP", "assay": "MAGL reversible inhibition assay (return of activity after washout)", "type": "biochemical", "conditions": "for A: degree to which MAGL enzymatic activity returned following washout: pre-washout compound concentration 1 μM, relative to control without inhibitor", "procedure": "Example 24: Measuring Reversible MAUL Inhibition (IC50)\nThe reversible mechanism of MAGL inhibition of a test compound of Formula (I) can be determined. Flag-tagged MAGL enzyme will be immobilized on anti-Flag beads. […] Colorimetric substrate (4-NPA) will be added and the reaction monitored on a plate reader for 30 minutes to verify complete inhibition. Immobilized enzyme will then be washed thoroughly to remove the inhibitor, and fresh substrate will be added. The reaction will be monitored for an additional 30 minutes; returning enzymatic activity will indicate reversibility of inhibition.\nDetermining MAGL Reversible Inhibition:\nMAGL enzyme was incubated for 30 minutes in the presence of 40× the IC50 concentration of inhibitor. […] Substrate was added and the reaction was monitored for 30 minutes."}, "human MAGL": {"molecular_target": "T2, human MAGL (Homo sapiens, UniProt Q99685)", "T2 construct": "recombinant MAGL enzyme (aa 2-303 RBC, internal preparation)", "T2 sequence (Q99685 2-303)": "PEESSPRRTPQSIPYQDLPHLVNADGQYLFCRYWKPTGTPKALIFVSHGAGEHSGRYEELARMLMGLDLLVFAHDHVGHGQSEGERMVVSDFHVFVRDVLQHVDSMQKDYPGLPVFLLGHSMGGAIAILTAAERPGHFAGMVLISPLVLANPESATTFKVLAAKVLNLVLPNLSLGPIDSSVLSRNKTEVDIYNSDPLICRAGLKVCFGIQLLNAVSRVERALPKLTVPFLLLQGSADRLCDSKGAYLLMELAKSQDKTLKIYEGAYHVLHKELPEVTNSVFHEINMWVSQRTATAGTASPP", "assay": "MAGL inhibition potency assay with 4-nitrophenyl acetate (4NPA) substrate, absorbance 405 nm", "type": "biochemical", "conditions": "read-out: MAGL Potency (Detection Method)"}, "[1]": {"assay": "Pharmacokinetic study of compounds in mice (brain exposure)", "type": "in vivo, male C57BL/6 mice", "conditions": "male, C57BL/6, mouse, oral, 5 mg/kg, Protocols B-E", "procedure": "Example 25: Pharmacokinetic Study of Compounds in Mice\nHealthy male C57BL/6 mice (8-12 weeks old) weighing between 17 to 35 g were procured from Global, India. Temperature and humidity were maintained at 22±3° C. and 30-70%, respectively and illumination was controlled to give a sequence of 12 hr light and 12 hr dark cycle. Temperature and humidity were recorded by auto-controlled data logger system. All the animals were provided laboratory rodent diet. Reverse osmosis water treated with ultraviolet light was provided ad libitum.\nProtocol A: Twenty-four male mice were divided into two groups as; Group 1: 30 mg/kg/IP; Plasma and brain; Number of animals=12; Animal #1-12. Group 2: 30 mg/kg/PO; Plasma and brain; Number of animals=12; Animal #13-24. Animals in Group 1 were administered intraperitoneally with solution formulation of PSY-05-00074-001 in 5% NMP, 5% Solutol HS-15 and 90% normal saline at […] dose. Animals in Group 2 were administered orally with solution formulation of PSY-05-00074-001 in 5% NMP, 5% Solutol HS-15 and 90% normal saline at 30 mg/kg dose. Blood samples (approximately 60 μL) were collected under light isoflurane anesthesia from retro orbital plexus at 0.25, 0.5, 1, 2, 4 and 8 hr (IP and PO). Plasma samples were separated by centrifugation of whole blood and stored below −70° C. until bioanalysis. Immediately after collection of blood from intraperitoneal and oral group animals, animals were euthanized with excess CO2 and brain samples were collected from set of two mice at each time point. Brain samples were divided into two parts. Half brain samples were homogenized using ice-cold phosphate buffer saline (pH-7.4) and homogenates were stored below −70±10° C. until analysis. Total homogenate volume was three times the brain weight. Other part of brain was stored below −70±10° C. for further analysis. All samples were processed for analysis by protein precipitation using acetonitrile and analyzed with fit-for-purpose LC/MS/MS method (LLOQ-2.02 ng/mL for plasma and 6.06 ng/g for brain). Pharmacokinetic parameters were calculated using the non-compartmental analysis tool of Phoenix WinNonlin®.\nProtocol B: Thirty six mice were included into the study and divided in to three groups as Group 1 (n=12), Group 2 (n=12) and Group 3 (n=12) with n=2 mice per time-point design. Animals in Group 1 were administered intravenously with solution formulation of PSY-05-00414-001 at 5 mg/kg dose. Animals in Group 2 were administered orally with solution formulation of PSY-05-00414-001 at a dose of 5 mg/kg. Animals in Group 3 were administered intraperitoneally with solution formulation of PSY-05-00414-001 at 5 mg/kg dose. The formulation vehicle for all the three groups was 5% NMP, 5% Solutol HS-15 and 90% normal saline. Blood samples (approximately 60 μL) were collected under light isoflurane anesthesia from two mice at 0.25, 0.5, 1, 2, 4 and 8 h. Plasma was harvested by centrifugation of blood and stored at −70±10° C. until analysis. After blood collection, brain was perfused and isolated at 0.25, 0.5, 1, 2, 4 and 8 h. Brain samples were dipped thrice in ice-cold phosphate buffer saline, blotted dry and cut in to two equal portion. Half-brain samples from each time-point were weighed and homogenized using ice-cold phosphate buffer saline with twice volume of brain weight making the total homogenate three volumes and stored below −70±10′° C. until analysis. Remaining half-portions of brain samples was snap freeze and kept in −70±10° C. until further confirmation from client. Plasma and brain samples were quantified by fit-for-purpose LC-MS/MS method (LLOQ: 1.01 ng/mL for plasma and 2.02 ng/mL for brain).\nProtocol C: Fifty four male mice were included in study and divided in to three groups as Group 1 (n=18), Group 2 (n=18) and Group 3 (n=18) with 3 mice/time point design. […]"}}, "note": "pIC50: −log10 of the molar value. Read-outs that look alike come from different tables or passages of the source."}
{"smiles": "O=C(c1cc(O)ccc1F)N1CC2(CC(n3cc(C4CC4)c(-c4ccccc4F)n3)C2)C1", "note": "(single isomer, unassigned) [Compound 493, (6-(4-Cyclopropyl-3-(2-fluorophenyl)-1H-pyrazol-1-yl)-2-azaspiro [3.3]heptan-2-yl) (2-fluoro-5-hydroxyphenyl) methanone]", "values": [{"measurement": "A: degree to which MAGL enzymatic activity returned following washout", "setting": "MAGL enzyme", "value": 47, "unit": "%"}]}
{"smiles": "Cc1cc(C2CC3(C2)CN(C(=O)c2ccc(F)cc2OCC(F)(F)F)C3)n(-c2ccccc2C)n1", "note": "[Compound 178, [4-fluoro-2-(2,2,2-trifluoroethoxy)phenyl]{6-[3-methyl-1-(o-tolyl)-5-pyrazolyl]-2-aza-2-spiro[3.3]heptyl}methanone]", "values": [{"measurement": "pIC50", "setting": "human MAGL; Method 2: Cayman Chemical MAGL enzyme prep, 10 nM enzyme", "value": "> 7.30"}, {"measurement": "pIC50", "setting": "human MAGL; Method 3: Reaction Biology MAGL enzyme prep, 10 nM enzyme", "value": "> 7.30"}, {"measurement": "pIC50", "setting": "human MAGL; Method 5: Cayman Chemical MAGL enzyme prep, 25 nM enzyme", "value": "> 7.30"}]}
{"smiles": "O=C(Oc1ccc([N+](=O)[O-])cc1)N1CCC(C(O)(c2ccc3c(c2)OCO3)c2ccc3c(c2)OCO3)CC1", "note": "[JZL-184, reference compound]", "values": [{"measurement": "B: % MAGL activity returning after washout", "setting": "MAGL enzyme; immediately following a 30 minute washout, relative to control (no inhibitor before washout), pre-washout 1 μM", "value": "<1", "unit": "%"}, {"measurement": "A: degree to which MAGL enzymatic activity returned following washout", "setting": "MAGL enzyme", "value": "complete lack of return of MAGL enzymatic activity"}]}
{"smiles": "Cc1cnn(C2CC3(C2)CN(C(=O)c2cc(O)ccc2F)C3)c1-c1cc(F)ccc1Cl", "note": "(single isomer, unassigned) [Compound 519, (6-(5-(2-chloro-5-fluorophenyl)-4-methyl-1H-pyrazol-1-yl)-2-azaspiro [3.3]heptan-2-yl) (2-fluoro-5-hydroxyphenyl) methanone]", "values": [{"measurement": "A: degree to which MAGL enzymatic activity returned following washout", "setting": "MAGL enzyme", "value": 155, "unit": "%"}]}
{"smiles": "Cc1cn(C2CC3(C2)CN(C(=O)c2cc(O)ccc2F)C3)nc1-c1cc(F)ccc1Cl", "note": "[Compound 520, (6-(3-(2-chloro-5-fluorophenyl)-4-methyl-1H-pyrazol-1-yl)-2-azaspiro [3.3]heptan-2-yl)(2-fluoro-5-hydroxyphenyl) methanone]", "values": [{"measurement": "A: degree to which MAGL enzymatic activity returned following washout", "setting": "MAGL enzyme", "value": 100, "unit": "%"}]}
{"smiles": "O=C(c1cc(O)ccc1F)N1CC2(CC(n3cc(C(F)(F)F)c(-c4ccccc4F)n3)C2)C1", "note": "(single isomer, unassigned) [Compound 473, (2-fluoro-5-hydroxyphenyl)(6-(3-(2-fluorophenyl)-4-(trifluoromethyl) 1H-pyrazol-1-yl)-2-azaspiro[3.3]heptan-2-yl)methanone]", "values": [{"measurement": "AUC(0-t)", "setting": "[1]", "value": 464, "unit": "ng·h/mL"}, {"measurement": "Cmax", "setting": "[1]", "value": 172, "unit": "ng/g"}, {"measurement": "A: degree to which MAGL enzymatic activity returned following washout", "setting": "MAGL enzyme", "value": 41, "unit": "%"}]}
